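Dose response: 5 concentrations. Exposure: 48 h. Format: 96-well plates. Endpoint: linear interpolation; highest concentration if not reached. GI50: concentration for 50% inhibition of growth. TGI marks complete inhibition of growth.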
What was measured:
Assay in all cases: DTP human tumour cell line panel, 48 h
A549 NSCLC = system: A549 NSCLC
ACHN renal = system: ACHN renal
CAKI-1 renal = system: CAKI-1 renal
COLO 205 colon = system: COLO 205 colon
HL-60(TB) leukemia = system: HL-60(TB) leukemia
LOX IMVI melanoma = system: LOX IMVI melanoma
MOLT-4 leukemia = system: MOLT-4 leukemia
NCI/ADR-RES ovarian = system: NCI/ADR-RES ovarian
RXF 393 renal = system: RXF 393 renal
TK-10 renal = system: TK-10 renal

SMILES | TGI (A549 NSCLC) | TGI (ACHN renal) | TGI (CAKI-1 renal) | TGI (COLO 205 colon) | TGI (HL-60(TB) leukemia) | TGI (LOX IMVI melanoma) | TGI (MOLT-4 leukemia) | TGI (NCI/ADR-RES ovarian) | TGI (RXF 393 renal) | TGI (TK-10 renal) | GI50 (A549 NSCLC) | GI50 (ACHN renal) | GI50 (CAKI-1 renal) | GI50 (COLO 205 colon) | GI50 (HL-60(TB) leukemia) | GI50 (LOX IMVI melanoma) | GI50 (MOLT-4 leukemia) | GI50 (NCI/ADR-RES ovarian) | GI50 (RXF 393 renal) | GI50 (TK-10 renal)
COc1ccc(-c2cc(-c3ccc(O)cc3O)c(C#N)c(=O)[nH]2)cc1 | 62 µM | > 100 µM | 64.1 µM | 31.6 µM | 65.4 µM | 31.6 µM | 55.1 µM | 46.2 µM | 35.4 µM | > 100 µM |  |  |  |  |  |  |  |  |  | 
Cn1ccc(C(=O)NCCN(CCNC(=O)c2ccn(C)c(=O)c2O)CCNC(=O)c2ccn(C)c(=O)c2O)c(O)c1=O | > 100 µM | > 100 µM | > 100 µM | > 100 µM | > 100 µM |  |  | > 100 µM | > 100 µM | > 100 µM |  |  |  |  |  |  |  |  |  | 
Cc1[nH]c(=O)[nH]c(=O)c1/C=C/C(=O)NC(CO)CS(=O)Cc1ccccc1 (configuration not stated) | > 300 µM |  | > 300 µM | > 300 µM | > 300 µM | > 300 µM | > 300 µM | > 300 µM | > 300 µM |  |  |  |  |  |  |  |  |  |  | 
COc1cc(/C=N\c2nc(-c3ccc(NS(=O)(=O)c4ccc(Cl)c(OC)c4)cc3)cs2)ccc1O | > 100 µM | > 100 µM | > 100 µM | > 100 µM | 74 µM | > 100 µM | > 100 µM | > 100 µM | 80.8 µM |  |  |  |  |  |  |  |  |  |  | 
NNC(=O)CCSc1ccccc1 | > 100 µM | > 100 µM | > 100 µM | > 100 µM | > 100 µM | > 100 µM | > 100 µM | > 100 µM | > 100 µM | > 100 µM |  |  |  |  |  |  |  |  |  | 
CN(C)CCCSc1nc2c(c(=N)n1-c1ccccc1)c(=S)n(-c1ccccc1)c(=S)n2-c1ccccc1 | 4.58 µM | 3.22 µM | 3.16 µM | 3.94 µM | 1.75 µM | 2.87 µM | 3.28 µM | 7.38 µM | 3.06 µM | 3.09 µM |  |  |  |  |  |  |  |  |  | 
CCOC(=O)C(Cc1cn(C(C)=O)c2ccccc12)P(=O)(OCC)OCC (configuration not stated) | > 100 µM | > 100 µM | > 100 µM | > 100 µM |  | > 100 µM | > 100 µM | > 100 µM |  | > 100 µM |  |  |  |  |  |  |  |  |  | 
c1ccc(C(NC2=NCCO2)c2ccccc2)cc1 | > 10 µM | > 10 µM | > 10 µM | > 10 µM | > 10 µM | > 10 µM | > 10 µM | > 10 µM | > 10 µM | > 10 µM |  |  |  |  |  |  |  |  |  | 
Cn1ncc2c(Nc3cccc(Cl)c3)nc(Nc3cccc(Cl)c3)nc21 | > 53.4 µM | 29.2 µM | 30.8 µM | > 53.8 µM | 44.9 µM | > 85.7 µM | 47.4 µM | 37.3 µM | 11.6 µM | 27.9 µM |  |  |  |  |  |  |  |  |  | 
COc1ccc(C(O)(c2ccccc2)c2nccc3ccccc23)cc1 (configuration not stated) | > 100 µM | > 100 µM | > 100 µM | > 100 µM | > 100 µM | > 100 µM | 11.9 µM | > 100 µM | 44.2 µM | > 100 µM |  |  |  |  |  |  |  |  |  | 
O=C(O)CCc1nc2ccccc2[nH]1 | > 100 µM | > 100 µM | > 100 µM | > 100 µM | > 100 µM | > 100 µM | > 100 µM | > 100 µM | > 100 µM | > 100 µM |  |  |  |  |  |  |  |  |  | 
C/C(=N\NC(=S)N(C)C)c1nc2ncccc2[nH]1 | > 100 µM | 14.7 µM | 3.75 µM | 23.9 µM | 1.32 µM | > 100 µM | 9.86 µM | 12.6 µM | > 100 µM | > 100 µM |  |  |  |  |  |  |  |  |  | 
COc1cc2cc(C(=O)Nc3cc4n(n3)-c3ccccc3C4)[nH]c2c(OC)c1OC | 7.63 µM | 17.6 µM | 6.3 µM | 9.45 µM | 6.1 µM | 12.7 µM | 2.2 µM | 3.86 µM | 50 µM | 9.27 µM |  |  |  |  |  |  |  |  |  | 
O=[N+]([O-])c1ccc(Oc2c(Cl)cc(S(=O)(=O)/N=C(\NO)Nc3ccc(Cl)cc3)cc2Cl)c(Cl)c1 | 32.1 µM | 28.2 µM | 28.3 µM | 35.5 µM | 51.7 µM | 37.8 µM | 25.6 µM | 51.4 µM | 26.5 µM | 29.7 µM |  |  |  |  |  |  |  |  |  | 
O=c1/c(=C/c2ccc([N+](=O)[O-])o2)sc2n1[C@@H](c1ccc(Cl)cc1)C=C(c1cc(F)c(Cl)cc1Cl)N=2 | 86.9 µM | 32.6 µM | > 100 µM | 16.2 µM | 49.2 µM | 33.6 µM | 45.9 µM | > 100 µM | 28.5 µM | 36.2 µM |  |  |  |  |  |  |  |  |  | 
CCOC(=O)CCSc1nc2ccc(I)cc2c(=O)n1Cc1ccccc1 | > 100 µM | > 83 µM | 9.59 µM | 26.9 µM | > 73.7 µM | > 77.3 µM |  | > 60.3 µM | > 100 µM | > 88.2 µM |  |  |  |  |  |  |  |  |  | 
OCCCNc1ncnc2[nH]ncc12 | > 100 µM | > 100 µM | > 100 µM | > 100 µM | > 100 µM | > 100 µM | > 100 µM | > 100 µM | > 100 µM | > 100 µM |  |  |  |  |  |  |  |  |  | 
CC(Oc1ccccc1Cl)C(=O)NN1C(=O)CC(=O)NC1=S (configuration not stated) | > 100 µM | > 100 µM | > 100 µM | > 100 µM | > 100 µM | > 100 µM | > 100 µM | > 100 µM | > 100 µM | > 100 µM |  |  |  |  |  |  |  |  |  | 
COc1cc2c(cc1OCCCOS(C)(=O)=O)N=C[C@@H]1CCCN1C2=O | > 100 µM | > 100 µM | > 100 µM | > 100 µM | > 100 µM | > 100 µM | > 100 µM | > 100 µM | > 100 µM | > 100 µM |  |  |  |  |  |  |  |  |  | 
O=C(Nc1ccc(-n2cc(-c3ccncc3)c(-c3ccc(O)c(Cl)c3)n2)cc1)Nc1ccc(Cl)c(C(F)(F)F)c1 | 17.4 µM | 9.42 µM | 19.8 µM | 22.9 µM | 6.27 µM | 18 µM | 16.4 µM | 52.7 µM | 3.56 µM | 9.78 µM | 3.6 µM | 2660 nM | 3.17 µM | 6.23 µM | 2540 nM | 2140 nM | 3.18 µM | 4.1 µM | 1670 nM | 2710 nM
O=C(O)c1cc(=O)c2c(OCC(O)COc3cccc4oc(C(=O)O)cc(=O)c34)cccc2o1 | > 100 µM | > 100 µM | > 100 µM | > 100 µM | > 100 µM | > 100 µM | > 100 µM | > 100 µM | > 100 µM | > 100 µM |  |  |  |  |  |  |  |  |  | 
NC(=O)c1cccc(N=c2oc3ccc(Br)cc3cc2-c2nc3ccccc3[nH]2)c1 | 26.4 µM | 32.2 µM | 34.3 µM | 35.8 µM | 51.3 µM | 37.5 µM | 43.4 µM | 35.9 µM | 43.5 µM | 30.7 µM |  |  |  |  |  |  |  |  |  | 
CC(=O)O[C@@H]1C(=O)N(c2ccccc2)[C@@H]1c1cc2ccccc2c2ccccc12 | > 100 µM | > 100 µM | 36.8 µM | 32.3 µM | 58.2 µM | 64.3 µM | 56 µM | > 100 µM | 62.6 µM | > 100 µM |  |  |  |  |  |  |  |  |  | 
CC(C)CC(=O)NC(C(=O)NC(C(=O)NC(CC(C)C)C(O)CC(=O)NC(C)C(=O)NC(CC(C)C)C(O)CC(=O)O)C(C)C)C(C)C (configuration not stated) | > 100 µM | > 100 µM | > 100 µM | > 100 µM |  | > 100 µM | > 100 µM | > 100 µM |  | > 100 µM |  |  |  |  |  |  |  |  |  | 
Cc1c2c(OCC(O)CN3CCN(c4ccccc4)CC3)nn(C)c(=O)c2c(C)n1-c1ccccc1 (configuration not stated) | 73.7 µM | 49.6 µM | > 100 µM | 39.6 µM | 49.1 µM |  | 88.9 µM | 63.8 µM | 70.2 µM | > 100 µM |  |  |  |  |  |  |  |  |  | 
Nc1ccc(Oc2ccc(C3(c4ccc(Oc5ccc(N)cc5)cc4)C4CC5CC(C4)CC3C5)cc2)cc1 | 42.2 µM | > 62.9 µM | > 83.4 µM | > 100 µM | 44.3 µM | > 28.4 µM | > 100 µM | > 100 µM | 20.9 µM | > 92.4 µM |  |  |  |  |  |  |  |  |  | 
C#C/C=C\CCCCCCCCCCCCCC/C=C\CCCCC#CC(O)C#CCCCC/C=C\CCCCCC/C=C/C(O)C#C (configuration not stated) | 37.1 µM | > 75 µM | 18.1 µM | 35.6 µM | 43.6 µM | 8.75 µM | > 68 µM | > 75 µM | 41.4 µM | > 49 µM |  |  |  |  |  |  |  |  |  | 
CC(C)C(=O)CC(c1ccc(Cl)cc1)N1N=C(C(C)C)CC1c1ccc(Cl)cc1 (configuration not stated) | > 100 µM | > 100 µM | > 94.9 µM | > 100 µM | 76.8 µM | > 100 µM | 83.4 µM |  | > 100 µM | > 100 µM |  |  |  |  |  |  | 22.4 µM |  |  | 
C/C(=N\NC(=S)NCCCCNC(=S)N/N=C(\C)c1ccccn1)c1ccccc1 | > 58 µM | > 24 µM | > 100 µM |  |  | 14.3 µM | > 30.5 µM | 3.86 µM | > 23.1 µM | 40.6 µM |  |  |  |  |  |  |  |  |  | 
C=CCN1C[C@H](C)N([C@@H](c2ccc(C(=O)N3CCCCC3)cc2)c2cccc(OC)c2)C[C@H]1C | > 100 µM | > 100 µM | > 100 µM | 30.6 µM | 21.5 µM | > 100 µM | > 100 µM | > 100 µM | > 100 µM | > 100 µM |  |  |  |  |  |  |  |  |  | 
